Source: patent publication US10660877B2 (BRISTOL-MYERS SQUIBB COMPANY, priority 2016, dated 2020)
Read-outs that look alike come from different tables or passages of the source.

Assays:
[1] = target: human TLR8 (Homo sapiens (Human), UniProt Q9NR97); experiment: TLR8 inhibition reporter assay (HEK-Blue cells, SEAP reporter, R848 stimulation);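 further: compounds tested from 0.05 nM to 50 µM, 22 h at 37 °C, SEAP measured with HEK-Blue Detection, inhibition relative to agonist plus DMSO versus a known inhibitor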
[2] = target: human TLR9 (Homo sapiens (Human), UniProt Q9NR96); experiment: TLR9 inhibition reporter assay (HEK-Blue cells, SEAP reporter, ODN2006 stimulation);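 further: compounds tested over 0.05 nM to 50 µM, 22 h incubation, inhibition taken as SEAP signal drop from agonist plus DMSO wells toward a known inhibitor control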
[3] = target: human TLR7 (Homo sapiens (Human), UniProt Q9NYK1); experiment: TLR7 inhibition reporter assay (HEK-Blue cells, SEAP reporter, gardiquimod stimulation); type: cell-based
[4] = read-out: TLR8 IC50, HEK-Blue cells overexpressing human TLR8, R848 15.9 μM
[5] = read-out: TLR9 IC50, HEK-Blue cells overexpressing human TLR9, ODN2006 5 nM
[6] = HEK-Blue cells overexpressing human TLR7, gardiquimod 7.5 μM
[7] = read-out: TLR8 IC50, HEK-Blue cells, R848 15.9 μM
[8] = read-out: TLR9 IC50, HEK-Blue cells, ODN2006 5 nM
[9] = HEK-Blue cells, gardiquimod 7.5 μM
[10] = TLR8 IC50, HEK-Blue cells overexpressing human TLR8, R848 15.9 μM
[11] = TLR9 IC50, HEK-Blue cells overexpressing human TLR9, ODN2006 5 nM

human TLR7, sequence (Q9NYK1 27-1049): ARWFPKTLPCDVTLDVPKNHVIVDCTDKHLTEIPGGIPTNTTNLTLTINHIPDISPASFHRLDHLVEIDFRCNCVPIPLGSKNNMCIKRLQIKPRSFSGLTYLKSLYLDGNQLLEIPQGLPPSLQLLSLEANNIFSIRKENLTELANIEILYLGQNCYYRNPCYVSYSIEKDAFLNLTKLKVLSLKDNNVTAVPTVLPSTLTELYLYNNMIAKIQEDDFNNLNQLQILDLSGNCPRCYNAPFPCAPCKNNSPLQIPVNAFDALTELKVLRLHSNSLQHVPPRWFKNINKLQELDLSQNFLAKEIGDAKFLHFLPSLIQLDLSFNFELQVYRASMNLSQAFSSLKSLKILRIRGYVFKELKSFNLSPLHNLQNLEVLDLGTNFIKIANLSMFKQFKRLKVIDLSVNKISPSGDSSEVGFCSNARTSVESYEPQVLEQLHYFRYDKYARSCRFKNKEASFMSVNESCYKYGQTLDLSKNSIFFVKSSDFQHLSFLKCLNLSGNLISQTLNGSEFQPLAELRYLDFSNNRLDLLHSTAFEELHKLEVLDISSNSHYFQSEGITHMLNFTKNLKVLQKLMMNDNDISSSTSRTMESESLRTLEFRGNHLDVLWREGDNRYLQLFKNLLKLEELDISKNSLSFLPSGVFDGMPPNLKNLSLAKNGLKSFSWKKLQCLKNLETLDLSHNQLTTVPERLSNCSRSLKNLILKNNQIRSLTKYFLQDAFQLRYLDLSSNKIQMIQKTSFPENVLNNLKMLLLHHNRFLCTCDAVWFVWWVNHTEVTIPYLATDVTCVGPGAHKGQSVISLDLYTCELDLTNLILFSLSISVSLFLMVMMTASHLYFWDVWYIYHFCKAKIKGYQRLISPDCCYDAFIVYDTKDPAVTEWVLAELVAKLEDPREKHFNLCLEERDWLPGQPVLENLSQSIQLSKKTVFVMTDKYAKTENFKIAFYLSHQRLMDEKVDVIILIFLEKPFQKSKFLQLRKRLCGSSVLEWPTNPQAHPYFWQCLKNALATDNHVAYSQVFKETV
human TLR9, sequence (Q9NR96 26-1032): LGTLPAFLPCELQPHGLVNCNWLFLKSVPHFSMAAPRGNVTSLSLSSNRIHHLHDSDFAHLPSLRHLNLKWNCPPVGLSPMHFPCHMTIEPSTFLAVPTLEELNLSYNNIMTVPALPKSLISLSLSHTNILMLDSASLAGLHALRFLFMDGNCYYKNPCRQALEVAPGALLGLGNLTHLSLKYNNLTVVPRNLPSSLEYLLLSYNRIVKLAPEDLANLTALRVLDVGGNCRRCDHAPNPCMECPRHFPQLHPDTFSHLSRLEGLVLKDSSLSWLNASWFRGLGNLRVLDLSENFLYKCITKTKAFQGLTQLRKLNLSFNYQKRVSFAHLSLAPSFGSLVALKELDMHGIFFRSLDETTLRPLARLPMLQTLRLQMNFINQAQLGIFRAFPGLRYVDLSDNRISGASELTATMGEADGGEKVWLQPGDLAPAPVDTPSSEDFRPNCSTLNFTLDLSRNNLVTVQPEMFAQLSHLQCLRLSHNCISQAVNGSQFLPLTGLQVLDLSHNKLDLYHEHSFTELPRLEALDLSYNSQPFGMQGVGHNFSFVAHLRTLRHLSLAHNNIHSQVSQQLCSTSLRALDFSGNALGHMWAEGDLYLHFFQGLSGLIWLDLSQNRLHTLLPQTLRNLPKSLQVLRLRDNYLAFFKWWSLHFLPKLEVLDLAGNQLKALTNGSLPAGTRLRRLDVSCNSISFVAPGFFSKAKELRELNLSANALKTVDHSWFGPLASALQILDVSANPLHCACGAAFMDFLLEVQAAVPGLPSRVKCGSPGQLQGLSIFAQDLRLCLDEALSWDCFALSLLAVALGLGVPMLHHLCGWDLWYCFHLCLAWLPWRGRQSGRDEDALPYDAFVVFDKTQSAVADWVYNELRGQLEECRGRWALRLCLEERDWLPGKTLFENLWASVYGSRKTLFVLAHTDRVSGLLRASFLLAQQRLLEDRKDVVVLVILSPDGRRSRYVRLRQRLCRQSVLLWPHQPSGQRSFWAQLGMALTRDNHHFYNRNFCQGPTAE
human TLR8, sequence (Q9NR97 27-1041): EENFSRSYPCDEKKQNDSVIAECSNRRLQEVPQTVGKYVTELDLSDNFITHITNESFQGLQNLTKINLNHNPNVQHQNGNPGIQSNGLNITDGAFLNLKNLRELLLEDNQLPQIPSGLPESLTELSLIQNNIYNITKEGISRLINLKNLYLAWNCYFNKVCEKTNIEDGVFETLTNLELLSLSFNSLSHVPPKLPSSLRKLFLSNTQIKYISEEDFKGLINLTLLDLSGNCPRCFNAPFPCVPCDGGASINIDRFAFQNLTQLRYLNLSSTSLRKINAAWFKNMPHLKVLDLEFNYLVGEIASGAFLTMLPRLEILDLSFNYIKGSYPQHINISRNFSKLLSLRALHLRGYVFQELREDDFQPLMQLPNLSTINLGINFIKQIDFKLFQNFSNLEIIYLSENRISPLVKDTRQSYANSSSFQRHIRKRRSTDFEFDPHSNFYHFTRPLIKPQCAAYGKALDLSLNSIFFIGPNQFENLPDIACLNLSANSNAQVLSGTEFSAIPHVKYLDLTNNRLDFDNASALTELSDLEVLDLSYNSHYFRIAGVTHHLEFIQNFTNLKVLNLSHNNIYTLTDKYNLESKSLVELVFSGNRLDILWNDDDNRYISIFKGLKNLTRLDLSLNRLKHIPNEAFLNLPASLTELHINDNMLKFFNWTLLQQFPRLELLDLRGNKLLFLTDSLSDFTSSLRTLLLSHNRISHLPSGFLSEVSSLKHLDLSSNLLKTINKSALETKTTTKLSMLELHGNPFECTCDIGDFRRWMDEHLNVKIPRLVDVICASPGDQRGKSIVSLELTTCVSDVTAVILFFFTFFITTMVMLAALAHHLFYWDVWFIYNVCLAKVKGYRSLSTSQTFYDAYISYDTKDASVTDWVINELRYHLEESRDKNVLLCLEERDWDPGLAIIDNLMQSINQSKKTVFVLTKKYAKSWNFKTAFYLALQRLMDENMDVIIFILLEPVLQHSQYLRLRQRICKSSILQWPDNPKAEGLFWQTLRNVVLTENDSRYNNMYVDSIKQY

| SMILES | IC50 [1, 4] | IC50 [2, 5] | IC50 [3, 6] | IC50 [1, 7] | IC50 [2, 8] | IC50 [3, 9] | IC50 [1, 10] | IC50 [2, 11] |
| --- | --- | --- | --- | --- | --- | --- | --- | --- |
| Cc1cc(-c2[nH]c3ccc(C4CCN(C(=O)C5CC5(F)F)CC4)cc3c2C(C)C)cc(C)n1 (stereo not drawn) [Example 108, (2,2-difluorocyclopropyl)(4-(2-(2,6-dimethylpyridin-4-yl)-3-isopropyl-1H-indol-5-yl)piperidin-1-yl)methanone] | 103 nM | 33100 nM | 7.4 nM |  |  |  |  |  |
| CC(C)c1c(-c2ccnc(C#N)c2C(F)(F)F)[nH]c2ccc(C3CCNCC3)cc12 [Example 33, 4-(3-isopropyl-5-(piperidin-4-yl)-1H-indol-2-yl)-3-(trifluoromethyl)picolinonitrile] | 230 nM | 5650 nM | 2070 nM |  |  |  |  |  |
| CCN(C)C(=O)CN1CCC(c2ccc3[nH]c(-c4cc(C)nc(C)c4)c(C(C)C)c3c2)CC1 [Example 246, 2-(4-(2-(2,6-dimethylpyridin-4-yl)-3-isopropyl-1H-indol-5-yl)piperidin-1-yl)-N-ethyl-N-methylacetamide] | 5.3 nM | 663 nM | 2.6 nM |  |  |  |  |  |
| Cc1cc(-c2[nH]c3ccc(C4CCNCC4)cc3c2C(C)C)c(F)cn1 [Example 16, 2-(5-fluoro-2-methylpyridin-4-yl)-3-isopropyl-5-(piperidin-4-yl)-1H-indole] | 1.4 nM | 2480 nM | 1.5 nM |  |  |  |  |  |
| Cc1cc(-c2[nH]c3ccc(C4CCN(CC(=O)NCC(C)(C)O)CC4)cc3c2C(C)C)cc(C)n1 [Example 268, 2-(4-(2-(2,6-dimethylpyridin-4-yl)-3-isopropyl-1H-indol-5-yl)piperidin-1-yl)-N-(2-hydroxy-2-methylpropyl)acetamide] | 7.2 nM | 416 nM | 3 nM |  |  |  |  |  |
| Cc1cc(-c2[nH]c3ccc(C4CCN(CC(=O)N5CCCC5C)CC4)cc3c2C(C)C)cc(C)n1 (stereo not drawn) [Example 259, 2-(4-(2-(2,6-dimethylpyridin-4-yl)-3-isopropyl-1H-indol-5-yl)piperidin-1-yl)-1-(2-methylpyrrolidin-1-yl)ethan-1-one] |  |  | 4.5 nM |  |  |  | 12.2 nM | 483 nM |
| Cc1cc(-c2[nH]c3ccc(C4CCNCC4)cc3c2C(C)C)c([N+](=O)[O-])c(C)n1 [Example 27, 2-(2,6-dimethyl-3-nitropyridin-4-yl)-3-isopropyl-5-(piperidin-4-yl)-1H-indole] | 8.9 nM | 2970 nM | 15.1 nM |  |  |  |  |  |
| Cc1cc(-c2[nH]c3ccc(C4CCN(CC(=O)N5CCC[C@H]5CO)CC4)cc3c2C(C)C)cc(C)n1 [Example 274, (S)-2-(4-(2-(2,6-dimethylpyridin-4-yl)-3-isopropyl-1H-indol-5-yl)piperidin-1-yl)-1-(2-(hydroxymethyl)pyrrolidin-1-yl)ethan-1-one] | 9.1 nM | 261 nM | 1.9 nM |  |  |  |  |  |
| CCc1c(-c2ccnc(N)c2O)[nH]c2ccc(C3CCNCC3)cc12 [Example 71, 2-amino-4-(3-ethyl-5-(piperidin-4-yl)-1H-indol-2-yl)pyridin-3-ol] | 5640 nM | 2830 nM | 7200 nM |  |  |  |  |  |
| CC(C)c1c(-c2ccnc(N(C)C)c2)[nH]c2ccc(C3CCNCC3)cc12 [Example 24, 4-(3-isopropyl-5-(piperidin-4-yl)-1H-indol-2-yl)-N,N-dimethylpyridin-2-amine] | 704 nM | 1690 nM | 1480 nM |  |  |  |  |  |
| Cc1cc(-c2[nH]c3ccc(C4CCN(CC(=O)NC56C[C@@H]7C[C@@H](CC(O)(C7)C5)C6)CC4)cc3c2C(C)C)cc(C)n1 [Example 225, 2-(4-(2-(2,6-dimethylpyridin-4-yl)-3-isopropyl-1H-indol-5-yl)piperidin-1-yl)-N-((1r,3 s,5R,7S)-3-hydroxyadamantan-1-yl)acetamide] | 26.8 nM | 651 nM | 11.6 nM |  |  |  |  |  |
| Cc1cc(-c2[nH]c3ccc(C4CCNCC4)cc3c2C(C)C)cc(N)n1 [Example 12, 4-(3-isopropyl-5-(piperidin-4-yl)-1H-indol-2-yl)-6-methylpyridin-2-amine] | 39.7 nM | 362 nM | 19.8 nM |  |  |  |  |  |
| Cc1cc(-c2[nH]c3ccc(C4CCN(CC5CCCCC5)CC4)cc3c2C(C)C)cc(C)n1 [Example 328, 5-(1-(cyclohexylmethyl)piperidin-4-yl)-2-(2,6-dimethylpyridin-4-yl)-3-isopropyl-1H-indole] | 77.1 nM | 7220 nM | 49.8 nM |  |  |  |  |  |

The remaining lines, values ahead:

| IC50 [1, 4] | IC50 [2, 5] | IC50 [3, 6] | IC50 [1, 7] | IC50 [2, 8] | IC50 [3, 9] | IC50 [1, 10] | IC50 [2, 11] | SMILES |
| --- | --- | --- | --- | --- | --- | --- | --- | --- |
|  |  |  | 16.2 nM | 19 nM | 145 nM |  |  | Cc1cc(-c2[nH]c3ccc(C4CCN(C5CCN(CC(C)C)CC5)CC4)cc3c2C)ccn1 [Example 810, 5-(1′-isobutyl-[1,4′-bipiperidin]-4-yl)-3-methyl-2-(2-methylpyridin-4-yl)-1H-indole] |
| 5.2 nM | 638 nM | 23.9 nM |  |  |  |  |  | Cc1cc(-c2[nH]c3ccc(C4CCN(C5CCOC(C)(C)C5)CC4)cc3c2C(C)C)ccn1 (stereo not drawn) [Example 719, 5-(1-(2,2-dimethyltetrahydro-2H-pyran-4-yl)piperidin-4-yl)-3-isopropyl-2-(2-methylpyridin-4-yl)-1H-indole] |
| 8.4 nM | 14500 nM | 78.4 nM |  |  |  |  |  | Cc1cc(-c2[nH]c3ccc(C4CCN(Cc5ncn(C)n5)CC4)cc3c2C(C)C)c(C)cn1 [Example 723, 2-(2,5-dimethylpyridin-4-yl)-3-isopropyl-5-(1-((1-methyl-1H-1,2,4-triazol-3-yl)methyl)piperidin-4-yl)-1H-indole] |
| 53 nM | 1060 nM | 9 nM |  |  |  |  |  | Cc1cc(-c2[nH]c3ccc(C4CCN(C(=O)CN(C)CC(C)(C)O)CC4)cc3c2C(C)C)cc(C)n1 [Example 401, 1-(4-(2-(2,6-dimethylpyridin-4-yl)-3-isopropyl-1H-indol-5-yl)piperidin-1-yl)-2-((2-hydroxy-2-methylpropyl)(methyl)amino) ethan-1-one] |
|  |  |  | 59 nM | 3420 nM | 13.5 nM |  |  | Cc1cc(-c2[nH]c3ccc(C4CCN(C(=O)C(=O)NCC5CCNCC5)CC4)cc3c2C(C)C)cc(C)n1 [Example 861, 2-(4-(2-(2,6-dimethylpyridin-4-yl)-3-isopropyl-1H-indol-5-yl)piperidin-1-yl)-2-oxo-N-(piperidin-4-ylmethyl)acetamide] |
| 1.8 nM | 4920 nM | 25.6 nM |  |  |  |  |  | Cc1cc(-c2[nH]c3ccc(C4CCN(Cc5cncs5)CC4)cc3c2C(C)C)c(C)cn1 [Example 687, 5-((4-(2-(2,5-dimethylpyridin-4-yl)-3-isopropyl-1H-indol-5-yl)piperidin-1-yl)methyl)thiazole] |
| 23.8 nM | 532 nM | 5.9 nM |  |  |  |  |  | Cc1cc(-c2[nH]c3ccc(C4CCN(CC(C)(C)C)CC4)cc3c2C(C)C)cc(C)n1 [Example 470, 2-(2,6-dimethylpyridin-4-yl)-3-isopropyl-5-(1-neopentylpiperidin-4-yl)-1H-indole] |
| 13.9 nM | 657 nM | 3.3 nM |  |  |  |  |  | CCN(C)CC(=O)N1CCC(c2ccc3[nH]c(-c4cc(C)nc(C)c4)c(C(C)C)c3c2)CC1 [Example 356, 1-(4-(2-(2,6-dimethylpyridin-4-yl)-3-isopropyl-1H-indol-5-yl)piperidin-1-yl)-2-(ethyl(methyl)amino)ethan-1-one] |
| 363 nM | 43900 nM | 202 nM |  |  |  |  |  | COCCOC(=O)N1CCC(c2ccc3[nH]c(-c4ccnc(C)c4)c(C(C)C)c3c2)CC1 [Example 561, 2-methoxyethyl 4-(3-isopropyl-2-(2-methylpyridin-4-yl)-1H-indol-5-yl)piperidine-1-carboxylate] |
| 17.7 nM | 280 nM | 3.6 nM |  |  |  |  |  | Cc1cc(-c2[nH]c3ccc(C4CCN(C(=O)CNC5CCOCC5)CC4)cc3c2C(C)C)cc(C)n1 [Example 386, 1-(4-(2-(2,6-dimethylpyridin-4-yl)-3-isopropyl-1H-indol-5-yl)piperidin-1-yl)-2-((tetrahydro-2H-pyran-4-yl)amino)ethan-1-one] |
| 3.1 nM | 1940 nM | 30.9 nM |  |  |  |  |  | Cc1cc(-c2[nH]c3ccc(C4CCN(CC(O)C(F)(F)F)CC4)cc3c2C(C)C)ccn1 (stereo not drawn) [Example 661, 1,1,1-trifluoro-3-(4-(3-isopropyl-2-(2-methylpyridin-4-yl)-1H-indol-5-yl)piperidin-1-yl)propan-2-ol] |
| 16.2 nM | > 50000 nM | 45.7 nM |  |  |  |  |  | Cc1cc(-c2[nH]c3ccc(C4CCN(CC(F)F)CC4)cc3c2C(C)C)c(F)cn1 [Example 649, 5-(1-(2,2-difluoroethyl)piperidin-4-yl)-2-(5-fluoro-2-methylpyridin-4-yl)-3-isopropyl-1H-indole] |
| 638 nM | 33900 nM | 64.2 nM |  |  |  |  |  | CC(=O)N1CCC(c2ccc3[nH]c(-c4cc(C)nc(C5CC5)c4)c(C(C)C)c3c2)CC1 [Example 504, 1-(4-(2-(2-cyclopropyl-6-methylpyridin-4-yl)-3-isopropyl-1H-indol-5-yl)piperidin-1-yl)ethan-1-one] |
| 16.8 nM | 451 nM | 3.4 nM |  |  |  |  |  | Cc1cc(-c2[nH]c3ccc(C4CCN(C(=O)CN5CCOC[C@H]5CO)CC4)cc3c2C(C)C)cc(C)n1 [Example 400, (R)-1-(4-(2-(2,6-dimethylpyridin-4-yl)-3-isopropyl-1H-indol-5-yl)piperidin-1-yl)-2-(3-(hydroxymethyl)morpholino)ethan-1-one] |
|  |  | 1.3 nM |  |  |  | 20 nM | 1010 nM | Cc1cc(-c2[nH]c3ccc(C4CCNCC4(F)F)cc3c2C(C)C)cc(C)n1 (single isomer, unassigned) [Example 489B, 5-(3,3-difluoropiperidin-4-yl)-2-(2,6-dimethylpyridin-4-yl)-3-isopropyl-1H-indole] |
